Results reported in ChEMBL document CHEMBL1671790, “A new β-carbonic anhydrase from Brucella suis, its cloning, characterization, and inhibition with sulfonamides and sulfamates, leading to impaired pathogen growth” (Bioorg Med Chem, 2011).

Key:
O=C=O [1] = assay: Activity at human carbonic anhydrase II by spectrophotometry at pH 7.5
O=C=O [2] = assay: Ratio of kcat to Km for human carbonic anhydrase II
O=C=O [3] = settings: Homo sapiens
O=C=O [4] = assay: Ratio of kcat to Km for human carbonic anhydrase I
Brucella suis [5] = assay: Ratio of kcat to Km for Brucella suis carbonic anhydrase II
Brucella suis [6] = system: Brucella suis
Brucella suis [7] = system: Brucella suis; remark: listed apart in the source
Helicobacter pylori [8] = assay: Ratio of kcat to Km for Helicobacter pylori beta-carbonic anhydrase
Helicobacter pylori [9] = assay: Activity at Helicobacter pylori beta-carbonic anhydrase by spectrophotometry at pH 8.3
Brucella suis [10] = assay: Ratio of kcat to Km for Brucella suis carbonic anhydrase I

Chain of Carbonic anhydrase 1 (Homo sapiens), P00915 (P00915 whole entry): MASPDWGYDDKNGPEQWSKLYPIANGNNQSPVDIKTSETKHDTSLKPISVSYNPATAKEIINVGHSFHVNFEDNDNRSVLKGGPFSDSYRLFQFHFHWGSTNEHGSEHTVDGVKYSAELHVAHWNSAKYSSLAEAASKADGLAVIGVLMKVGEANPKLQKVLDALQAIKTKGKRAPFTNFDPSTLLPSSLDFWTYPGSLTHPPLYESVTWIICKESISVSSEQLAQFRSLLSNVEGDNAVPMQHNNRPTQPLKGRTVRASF

Which kcat (O=C=O [1]) does the source give for “Carbonic anhydrase 2 (Homo sapiens) (from UniProt P00918)” here?
The kcat was 1.4 ×10⁶ /s.

And the kcat/Km (O=C=O [2])?
Its kcat/Km is 1.5 ×10⁸ /M/s.

Which results are given for “Carbonic anhydrase 1 (Homo sapiens), P00915”?
kcat (O=C=O [3]): 2 ×10⁵ /s; kcat/Km (O=C=O [4]): 5 ×10⁷ /M/s

Which results are given for `O=C=O`?
kcat/Km (Brucella suis [5]): 8.9 ×10⁷ /M/s; kcat (Brucella suis [6]): 6.4 ×10⁵ /s; kcat (Brucella suis [7]): 1.1 ×10⁶ /s; kcat/Km (Helicobacter pylori [8]): 4.8 ×10⁷ /M/s; kcat (Helicobacter pylori [9]): 7.1 ×10⁵ /s; kcat/Km (Brucella suis [10]): 3.9 ×10⁷ /M/s
